Source: patent publication US4151279A (priority 1978, dated 1979)

Tests used:
Type in all cases: in vivo
[1] = system: Ersiphe polygoni; assay: Powdery Mildew control (sprayed bean seedlings); conditions: 250-ppm solution; bean seedlings (cultivar Bountiful); inoculated one day after spray; about 10 days; relative to untreated check plants
Procedure: The powdery mildew test was made using bean seedlings (cultivar Bountiful) with well-developed primary leaves. The pathogen was Ersiphe polygoni. The bean seedlings were sprayed with a 250-ppm solution of the test compound in an acetone-water mixture containing a non-ionic emulsifier. The treated plants were inoculated one day after spray application of the test compound with the pathogen. The plants were then maintained in a greenhouse at 60-80% relative humidity and at a temperature of 20°-22° C. The rate of infection on the leaves were checked after about 10 days. The percent disease control provided by a given test compound was based on the disease reduction relative to untreated check plants.

[2] = system: Alternaria solani; assay: Tomato Early Blight control (sprayed tomato seedlings); conditions: 288 h, 250-ppm solution, tomato (cultivar Bonny Best) seedlings, inoculated one day later, about 12 days, relative to untreated check plants
Procedure: Compounds of the invention were tested for the control of the Tomato Early Blight organism, Alternaria solani. Tomato (cultivar Bonny Best) seedlings of 6 to 7 weeks old were used. The tomato plants were sprayed with a 250-ppm solution of the test compound in an acetone-and-water solution containing a small amount of a non-ionic emulsifier. The sprayed plants were inoculated one day later with the organism, dried and maintained at 60-80% relative humidity for about 12 days. Percent disease control was based on the percent disease development on untreated check plants.

[3] = system: Botrytis cinerea; assay: Botrytis cinerea control (preventive, harvested grape berries); conditions: 250-ppm solution; grape berries (cultivar Emperor); inoculated approximately one day later; 6-9 days after inoculation; relative to non-treated check
Procedure: Compounds Nos. 1, 8 and 11 were tested as preventive fungicides against Botrytis cinerea on harvested mature grape berries (cultivar Emperor) by the following procedure: 4 grape bunches (trimmed to approximately 50 berries) were sprayed with a 250-ppm solution of the test compound in a solution of water, acetone and a small amount of a non-ionic emulsifier. The sprayed grapes were inoculated approximately one day later with 2- to 3-week-old spores of Botrytis cinerea grown on potato dextrose agar plants. The rate of disease incidence was determined 6-9 days after inoculation, when disease symptoms are fully evident on non-treated check grapes. Infection is determined by actual count of the number of infected berries. The percent disease control provided by a test compound was calculated from the percentage disease reduction based on the non-treated check plants.

[4] = system: Plasmopara viticola; assay: Preventive Grape Downy Mildew control (detached grape leaves); conditions: detached Vitis vinifera cultivar Emperor leaves, seven to nine days after inoculation
Procedure: Compounds Nos. 1, 4, 13 and 19 were tested for the control of the grape downy mildew organism Plasmopara viticola. Detached leaves, between 70 and 85 mm in diameter, of 7-week-old Vitis vinifera cultivar Emperor grape seedlings were used as hosts. The leaves were sprayed with a solution of the test compound in acetone. The sprayed leaves were dried, inoculated with a spore suspension of the organism, placed in a humid environmental chamber and incubated at 18°-22° C. and about 100% relative humidity. Seven to nine days after inoculation, the amount of disease control was determined. The percent disease control provided by a given test compound was based on the percent disease reduction relative to untreated check plants.

[5] = system: Phytophthora infestans; assay: whole plant or invertebrate; conditions: in Solanum lycopersicum, 168 h, read-out: % Control
[6] = system: Septoria apii; conditions: celery (Utah) plants 11 weeks old; approximately 14 days; concentration not given; relative to untreated check plants

| Compound | pest or weed control at 250 µg/mL [2] [%] | pest or weed control at 250 µg/mL [5] [%] | also measured |
| --- | --- | --- | --- |
| CC1(C)OC(=O)CC(C(Cl)(Cl)Cl)N1OC(=O)Nc1ccccc1 (stereo not shown) [Compound 1] | 21 |  | % Control [1]: 91%; % Control [3]: 23%; % Control ([4]; 250 ppm): 23% |
| CC1(C)OC(=O)CC(C(Cl)(Cl)Cl)N1OC(=O)Nc1ccccc1F (stereo not shown) [Compound 2] | 21 |  | % Control [1]: 75% |
| CC1(C)OC(=O)CC(C(Cl)(Cl)Cl)N1OC(=O)Nc1ccc(Cl)c(Cl)c1 (stereo not shown) [Compound 4] |  | 96 | % Control ([4]; 100 ppm): 60% |
| O=C1CC(C(Cl)(Cl)Cl)N(OC(=O)Nc2ccc(Cl)c(Cl)c2)C2(CCCCC2)O1 (stereo not shown) [Compound 5] |  | 56 |  |
| CC1(C)OC(=O)C(Cl)(Cl)C(C(Cl)(Cl)Cl)N1OC(=O)Nc1ccc(Cl)c(Cl)c1 (stereo not shown) [Compound 7] | 18 | 21 |  |
| CC1(c2ccccc2)OC(=O)C(Cl)(Cl)C(C(Cl)(Cl)Cl)N1OC(=O)Nc1ccccc1 (stereo not shown) [Compound 8, N-(phenylcarbamyloxy)-2-methyl-2-phenyl-4-trichloromethyl-5,5-dichloro-6-oxotetrahydro-1,3-oxazine] | 84 | 97 | % Control [6]: 61%; % Control [3]: 100% |
| CC1(c2ccccc2)OC(=O)C(Cl)(Cl)C(C(Cl)(Cl)Cl)N1OC(=O)Nc1ccc(Cl)c(Cl)c1 (stereo not shown) [Compound 9] |  | 89 |  |
| CC1(C)OC(=O)C(Cl)(Cl)C(C(Cl)(Cl)Cl)N1OC(=O)Nc1cccc(Cl)c1 (stereo not shown) [Compound 10] | 84 | 68 |  |
| O=C(Nc1ccc(Cl)cc1)ON1C(C(Cl)(Cl)Cl)C(Cl)(Cl)C(=O)OC12CCCC2 (stereo not shown) [Compound 11] | 84 | 94 | % Control [6]: 42%; % Control [3]: 78% |
| O=C(Nc1cccc(Cl)c1)ON1C(C(Cl)(Cl)Cl)C(Cl)(Cl)C(=O)OC12CCCC2 (stereo not shown) [Compound 12] | 33 | 68 |  |
| CC1(c2ccccc2)OC(=O)C(Cl)(Cl)C(C(Cl)(Cl)Cl)N1OC(=O)Nc1cccc(Cl)c1 (stereo not shown) [Compound 13] |  | 89 | % Control ([4]; 100 ppm): 73% |
| CC1(C)OC(=O)C(Cl)(Cl)C(C(Cl)(Cl)Cl)N1OC(=O)Nc1ccc(Cl)cc1 (stereo not shown) [Compound 14] | 27 |  |  |
| O=C(Nc1cccc(Cl)c1)ON1C(C(Cl)(Cl)Cl)C(Cl)(Cl)C(=O)OC1(c1ccccc1)c1ccccc1 (stereo not shown) [Compound 15] | 51 |  | % Control [1]: 11% |
| O=C(Nc1ccc(Cl)cc1)ON1C(C(Cl)(Cl)Cl)C(Cl)(Cl)C(=O)OC1(c1ccccc1)c1ccccc1 (stereo not shown) [Compound 16] | 68 |  |  |
| COc1ccc(NC(=O)ON2C(C(Cl)(Cl)Cl)C(Cl)(Cl)C(=O)OC2(C)C)cc1 (stereo not shown) [Compound 18] |  | 95 |  |
| Cc1cccc(C)c1NC(=O)ON1C(C(Cl)(Cl)Cl)C(Cl)(Cl)C(=O)OC1(C)C (stereo not shown) [Compound 21] |  | 88 |  |
| CC1(C)OC(=O)CC(C(Cl)(Cl)Cl)N1OC(=O)Nc1ccc(Cl)cc1 (stereo not shown) [Compound 24] |  |  | % Control [1]: 75% |
| CC(C)C1(C)OC(=O)C(Cl)(Cl)C(C(Cl)(Cl)Cl)N1OC(=O)Nc1ccccc1 (stereo not shown) [Compound 27] |  | 92 |  |
| CC(C)C1(C)OC(=O)CC(C(Cl)(Cl)Cl)N1OC(=O)Nc1ccc(Cl)c(Cl)c1 (stereo not shown) [Compound 28] |  | 23 |  |
| CCC1(C)OC(=O)CC(C(Cl)(Cl)Cl)N1OC(=O)Nc1ccc(Cl)cc1 (stereo not shown) [Compound 31] | 39 | 27 | % Control [6]: 64% |
| CC(C)C1(C)OC(=O)CC(C(Cl)(Cl)Cl)N1OC(=O)Nc1ccc(Cl)cc1 (stereo not shown) [Compound 32] | 23 | 56 | % Control [1]: 100% |
| Cc1ccc(NC(=O)ON2C(C(Cl)(Cl)Cl)CC(=O)OC2(C)C)cc1 (stereo not shown) [Compound 33] |  | 21 | % Control [1]: 96% |
